According to the NIST ThermoML archive (doi:10.1021/acs.jced.6b00640):

Test: refractive index (Na D-line) (dimensionless); xn = mol fraction of the nth substance listed
Details: 100 kPa, Liquid, Standard Abbe refractometry

CCOC(=O)CCC(=O)OCC [diethyl butanedioate] + CCCC(=O)OCC
refractive index
Details | x2 = 0.0999 | x2 = 0.2 | x2 = 0.3003 | x2 = 0.3999 | x2 = 0.5 | x2 = 0.5997 | x2 = 0.7 | x2 = 0.7999 | x2 = 0.8999
288.15 K | 1.4198 | 1.4177 | 1.4154 | 1.413 | 1.4104 | 1.4076 | 1.4048 | 1.4016 | 1.3986
293.15 K | 1.4176 | 1.4155 | 1.4132 | 1.4107 | 1.4081 | 1.4053 | 1.4024 | 1.3992 | 1.3961
298.15 K | 1.4154 | 1.4132 | 1.4109 | 1.4084 | 1.4058 | 1.403 | 1.4 | 1.3968 | 1.3937
303.15 K | 1.4132 | 1.411 | 1.4086 | 1.4061 | 1.4035 | 1.4006 | 1.3976 | 1.3944 | 1.3912
308.15 K | 1.411 | 1.4088 | 1.4063 | 1.4038 | 1.4011 | 1.3982 | 1.3952 | 1.392 | 1.3888
313.15 K | 1.4088 | 1.4065 | 1.4041 | 1.4015 | 1.3988 | 1.3959 | 1.3928 | 1.3895 | 1.3862
318.15 K | 1.4066 | 1.4043 | 1.4018 | 1.3992 | 1.3964 | 1.3935 | 1.3904 | 1.387 | 1.3837
323.15 K | 1.4044 | 1.402 | 1.3995 | 1.3968 | 1.394 | 1.391 | 1.3878 | 1.3844 | 1.3809
